# Experimental data: patent US7868135B2, “Compositions of lipopeptide antibiotic derivatives and methods of use thereof” (priority 2003, dated 2011)
# Starred links: 1 amine or outer side, 2 acyl side, 3 side chain; linkers in the order of their positions; H or OH if unused. Positions of bridges follow the written chain, without caps; N, C: chain ends. Non-standard residues stand in square brackets, D forms with d. Residues, ends and D or L forms follow the SMILES beside them. ξ: configuration not given here. *: point of attachment. X18 = CC(NC(=O)/C=C/c1ccco1)C(N[*:1])C(=O)[*:2]; Propanoyl(3-SO2Ph) = O=C(CCS(=O)(=O)c1ccccc1)*; ξAbu(βξ-NH2) = CC(N[*:3])C(N[*:1])C(=O)[*:2]; ξAbu(3ξ-NH-βAla) = CC(NC(=O)CCN)C(N)C(=O)O; X4 = CNCC(=O)NC(C)C(N[*:1])C(=O)[*:2]; Pentadecanoyl = CCCCCCCCCCCCCCC(=O)*; ξAsp(βξ-Me) = CC(C(=O)O)C(N)C(=O)O; X13 = O=C(CCCCCCCCCCOc1ccccc1)*; Pip = O=C(O)[CH]1CCCCN1
# Tested on: Staphylococcus aureus (MSSA)
# Conditions: 24 h
# Outline: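 Broth microdilution MIC per NCCLS M7-A6 with doubling serial dilutions, in cation-adjusted Mueller-Hinton broth supplemented with 0.625 mM calcium.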
row,Compound,MIC
1,"CCCCCCCCCCCCCCC(=O)NC(CC(=O)O)C(=O)NC1C(=O)N2CCCCC2C(=O)NC(C(C)C(=O)O)C(=O)NC(CC(=O)O)C(=O)NCC(=O)NC(CC(=O)O)C(=O)NCC(=O)NC(C(C)NC(=O)CCCCCCCCCCOc2ccccc2)C(=O)NC(C(C)C)C(=O)N2CCCC2C(=O)NC1C (stereo not drawn) [Compound 348, C15-Amphomycin-9-(11-Phenoxyundecanoyl)] (Pentadecanoyl-D[ξAbu(βξ-NH2)][Pip][ξAsp(βξ-Me)]DGDG[ξAbu(βξ-NH2)](X13)VP; lactam 2-C; configuration not given here)",>64 µg/mL
2,"CCCCCCCCCCCCCCC(=O)NC(CC(=O)O)C(=O)NC1C(=O)N2CCCCC2C(=O)NC(C(C)C(=O)O)C(=O)NC(CC(=O)O)C(=O)NCC(=O)NC(CC(=O)O)C(=O)NCC(=O)NC(C(C)NC(=O)/C=C/c2ccco2)C(=O)NC(C(C)C)C(=O)N2CCCC2C(=O)NC1C (stereo not drawn) [Compound 349, C15-Amphomycin-9-(3-Furan-2-yl-Acryloyl)] (Pentadecanoyl-D[ξAbu(βξ-NH2)][Pip][ξAsp(βξ-Me)]DGDG[X18]VP; lactam 2-C; configuration not given here)",64 µg/mL
3,"CCCCCCCCCCCCCCC(=O)NC(CC(=O)O)C(=O)NC1C(=O)N2CCCCC2C(=O)NC(C(C)C(=O)O)C(=O)NC(CC(=O)O)C(=O)NCC(=O)NC(CC(=O)O)C(=O)NCC(=O)NC(C(C)NC(=O)CCS(=O)(=O)c2ccccc2)C(=O)NC(C(C)C)C(=O)N2CCCC2C(=O)NC1C (stereo not drawn) [Compound 350, C15-Amphomycin-9-(3-(Benzenesulfonyl)Propionoyl)] (Pentadecanoyl-D[ξAbu(βξ-NH2)][Pip][ξAsp(βξ-Me)]DGDG[ξAbu(βξ-NH2)](Propanoyl(3-SO2Ph))VP; lactam 2-C; configuration not given here)",64 µg/mL
4,"CCCCCCCCCCCCCCC(=O)NC(CC(=O)O)C(=O)NC1C(=O)N2CCCCC2C(=O)NC(C(C)C(=O)O)C(=O)NC(CC(=O)O)C(=O)NCC(=O)NC(CC(=O)O)C(=O)NCC(=O)NC(C(C)NC(=O)CCC(=O)O)C(=O)NC(C(C)C)C(=O)N2CCCC2C(=O)NC1C (centres unmarked) [Compound 352, C15-Amphomycin-9-Suc]",>64 µg/mL
5,"CCCCCCCCCCCCCCC(=O)NC(CC(=O)O)C(=O)NC1C(=O)N2CCCCC2C(=O)NC(C(C)C(=O)O)C(=O)NC(CC(=O)O)C(=O)NCC(=O)NC(CC(=O)O)C(=O)NCC(=O)NC(C(C)NC(=O)[C@@H]2CCCN2C(=O)[C@@H](N)CCCCN)C(=O)NC(C(C)C)C(=O)N2CCCC2C(=O)NC1C (some centres unmarked) [Compound 353, C15-Amphomycin-9-Pro-Lys]",>64 µg/mL
6,"CC(C)C1NC(=O)C(C(C)NC(=O)CCN)NC(=O)CNC(=O)C(CC(=O)O)NC(=O)CNC(=O)C(CC(=O)O)NC(=O)C(C(C)C(=O)O)NC(=O)C2CCCCN2C(=O)C(NC(=O)C(N)CC(=O)O)C(C)NC(=O)C2CCCN2C1=O (stereo not drawn) [Compound 355, Amphomycin-9-(β-Ala)] (H-D[ξAbu(βξ-NH2)][Pip][ξAsp(βξ-Me)]DGDG[ξAbu(3ξ-NH-βAla)]VP; lactam 2-C; configuration not given here)",>64 µg/mL
7,"CNCC(=O)NC(C)C1NC(=O)CNC(=O)C(CC(=O)O)NC(=O)CNC(=O)C(CC(=O)O)NC(=O)C(C(C)C(=O)O)NC(=O)C2CCCCN2C(=O)C(NC(=O)C(N)CC(=O)O)C(C)NC(=O)C2CCCN2C(=O)C(C(C)C)NC1=O (stereo not drawn) [Compound 356, Amphomycin-9-Sar] (H-D[ξAbu(βξ-NH2)][Pip][ξAsp(βξ-Me)]DGDG[X4]VP; lactam 2-C; configuration not given here)",>64 µg/mL

# Same assay, conditions: S. aureus (MSSA), CAMHB supplemented with 0.625 mM calcium, 24 hours at about 37° C.; a range = compound tested multiple times
row,Compound,MIC
1,"CCCCCCCCCCCCCCC(=O)NC(CC(=O)O)C(=O)NC1C(=O)N2CCCCC2C(=O)NC(C(C)C(=O)O)C(=O)NC(CC(=O)O)C(=O)NCC(=O)NC(CC(=O)O)C(=O)NCC(=O)NC(C(C)NC(=O)CCCc2cc3ccc4cccc5ccc(c2)c3c45)C(=O)NC(C(C)C)C(=O)N2CCCC2C(=O)NC1C (centres unmarked) [Compound 351, C15-Amphomycin-9-(4-(Pyren-2-yl)Butyroyl)]",>64 µg/mL
